Assay results: PubChem BioAssay (NCI)
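Following 48 hours of exposure in 96-well plates, responses at five concentrations were used to interpolate endpoints linearly. TGI: concentration producing complete growth inhibition.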

How the values were obtained:
Experiment in all cases: DTP human tumour cell line panel, 48 h
EKVX NSCLC = tested on: EKVX NSCLC
786-0 renal = tested on: 786-0 renal
NCI/ADR-RES ovarian = tested on: NCI/ADR-RES ovarian
OVCAR-4 ovarian = tested on: OVCAR-4 ovarian
HL-60(TB) leukemia = tested on: HL-60(TB) leukemia
SF-539 CNS = tested on: SF-539 CNS
T-47D breast = tested on: T-47D breast
SK-MEL-2 melanoma = tested on: SK-MEL-2 melanoma
MALME-3M melanoma = tested on: MALME-3M melanoma
UO-31 renal = tested on: UO-31 renal

| Compound | TGI (EKVX NSCLC) [µM] | TGI (786-0 renal) [µM] | TGI (NCI/ADR-RES ovarian) [µM] | TGI (OVCAR-4 ovarian) [µM] | TGI (HL-60(TB) leukemia) [µM] | TGI (SF-539 CNS) [µM] | TGI (T-47D breast) [µM] | TGI (SK-MEL-2 melanoma) [µM] | TGI (MALME-3M melanoma) [µM] | TGI (UO-31 renal) [µM] |
| --- | --- | --- | --- | --- | --- | --- | --- | --- | --- | --- |
| c1coc(-c2nccc3c2[nH]c2ccccc23)c1 | > 100 | > 100 | > 100 | > 100 | > 100 | > 100 | > 100 | > 100 | > 100 |  |
| COc1ccc2nc3c([N+](=O)[O-])ccc(NCCN(C)C)c3c(N)c2c1 | 3.79 | 3.31 | 3.03 | 2.95 | 0.41 | 3.05 | 2.91 | 4.76 | 3.14 | 2.87 |
| COc1ccc(-n2c(SC(CN3CCOCC3)CN3CCCC3=O)nc3ccccc3c2=O)cc1 (centres undefined) | > 100 | > 100 | > 100 | > 100 | > 100 | > 100 | > 100 | > 100 | > 100 | > 100 |
| Cc1cc2nc3c(C#N)c4c(c(Nc5ccc(F)cc5)n3c2cc1C)CCC4 | > 100 | > 100 | > 100 | > 100 | > 100 | > 100 | > 100 | > 100 | > 100 |  |
| CC(C)(C)COC(=O)C(C)(C)NC(=O)C(CC(=O)OCc1ccccc1)NC(=O)OCc1ccccc1 (centres undefined) | > 100 | > 100 | > 100 | > 100 | > 100 | > 100 | 60.2 | > 100 | 81.3 | 70.7 |
| Cn1cnc(N2CCCC2)c(C#N)c1=S | > 100 | > 100 | > 100 | > 100 | > 100 | > 100 | > 100 | > 100 | > 100 | 70.3 |
| Cc1ccc(S(=O)(=O)N2CCC[C@@H]2C(=O)O[C@@H]2CCC3CC=CC32)cc1 (some centres undefined) | > 100 | 55.4 | 63.2 | > 100 | 64.2 | > 100 | > 100 |  | 90 | 41.5 |
| CC(=O)C1=C(C)O[C@@H]2O[C@H](COCc3ccccc3)[C@@H](OCc3ccccc3)[C@H](O)[C@@H]2S1 | 82.8 | 60.6 | 51.6 | 73.7 | 39.7 | 42.2 | 21.5 | 39.1 | 44.5 | 37.7 |
| Nn1c(Nc2ccc(S(N)(=O)=O)cc2)nnc(/C=C/c2c(O)ccc3ccccc23)c1=O | 34.2 | 66.8 | 54 | 47.5 | 28.6 | > 100 | 40.6 | > 100 | 49.7 | 57.3 |
| N#Cc1c(N)oc(-c2ccc([N+](=O)[O-])cc2)c1C#N | 59.6 | > 100 | 44 |  | > 100 | 48.3 | 76.2 | 64.2 | 95.9 | 42.4 |
| COC1=C[C@]2(CCC(=O)O2)[C@@H]2Cc3ccccc3[C@H](O)[C@@H]2C1=O | > 100 | > 100 | > 100 | > 100 | 77.6 |  | 37.7 | 96.2 | 50.2 | > 100 |
| COc1cc(C2c3cc4c(cc3OC(NNc3ccccc3)C2C)OCO4)cc(OC)c1OC (centres undefined) | 21.1 | 12.8 | 58.6 | > 100 | 4.46 | 1.67 | > 100 | 38.6 | > 38.5 | 6.79 |
| Cn1c2ccc(F)cc2c2ccc3c(c21)C(=O)C=CC3=O | 37.9 | 8.21 | 59.6 | 11.1 | 2 | 35.8 | 9 | > 74.2 | 23.2 | 14.9 |
| Clc1cc(-c2ccccc2)nc(Nc2nc3ccccc3[nH]2)n1 | 49.5 | 34.2 | > 100 | 33 | > 100 | > 100 | > 100 |  | 69.1 | > 100 |
| O=C(c1ccccc1)N1CCN(C(=S)NC2CCCCC2)C1=S | 38.3 | 52.2 | 43.6 | 40.8 | 50.3 | 27.7 | 53.1 | 14.9 | 32.1 | 30.5 |
| CN(C)Cc1c(O)ccc2c1c1c(n2C)C(=O)c2ccccc2C1=O | > 100 | > 100 | 18.3 | 32.3 | > 100 | > 100 | > 100 | 24.8 | 15.5 | 37.5 |
